# Measured values taken from patent US10632106B2, “Methods of cancer treatment with 2-(1′H-Indole-3′-carbonyl)-thiazole-4-carboxylic acid methyl ester” (Ariagen, Inc., priority 2009, dated 2020).
# Test system: T24 (Human bladder cancer) xenografts
# Assay: T24 xenograft growth inhibition
# Type: in vivo
# Conditions: ITE 100-200 mg/kg i.p. once daily
# Method: All the procedures related to animal handling, care, and the treatment in the study were performed following guidelines of KeyGen Biotechn Co., Ltd. (Nanjing, China), a contract research organization we hired, based on the guidance of the Association for Assessment and Accreditation of Laboratory Animal Care (AAALAC). Animals were checked for any effects of tumor growth and drug treatment on normal behavior such as mobility, food and water consumption, body weight gain/loss (bodyweights were measured every two days), eye/hair matting, and any other abnormal effect. Death and observed clinical signs were recorded. Individual animals with a tumor volume exceeding 3,000 mm^3 or animals of a group with a mean tumor volume exceeding 2,000 mm^3 were euthanized. In addition, animals showing signs of severe distress and/or pain or losing the capability of accessing adequate food or water were humanely sacrificed.
# Cell lines HCT116, Siha, MFC were cultured in DMEM medium (high glucose) supplemented with 10% fetal bovine serum (FBS), SW116 and T24 in RPMI-1640 medium with 10% FBS, M14 and A375 in DMEM medium (high glucose) with 10% calf serum (CS), SGC7901 and Ketr-3 in RPMI-1640 medium with 10% CS, and CFPAC-1 in IMDM medium with 10% FBS. All of the cells were cultured, in the presence of 100 U/ml penicillin and 100 μg/ml streptomycin, at 37° C. in an atmosphere of 5% CO2 in air. […] The cells growing in an exponential phase were harvested and counted for tumor inoculation. Cell lines 5180 and U14 were maintained in ascites (peritoneal cavity fluid) of mice and were harvested and counted for tumor inoculation. […]
# Tumor volume was measured every two days in two dimensions using a caliper and the volume was calculated with a formula of: V=0.5 a×b^2, where a and b are the long and short diameter (in mm) of a tumor, respectively. […] The TGD was calculated as: TGD=T−C, where T was the time (in days) required for tumors in a drug treated group to reach a predetermined mean tumor volume and C the time (in days) in the control group to reach the same volume. […]
smiles,measurement,setting,value
"COC(=O)c1csc(C(=O)c2c[nH]c3ccccc23)n1 [ITE, 2-(1′H-indole-3′-carbonyl)-thiazole-4-carboxylic acid methyl ester]",TGD,"TGD at Vol. 1,000",9 days
same,TGI (%),"TGI at day 26, TGI=(1−ΔT/ΔC)×100%",66%
same,Weight Loss,end of therapy relative to beginning,13%
